Reference: ChEMBL document CHEMBL1201862, “PubChem BioAssay data set” (2004)
Blank lines part the entries; values can stand above or below the molecule they belong to. The source made the active and inactive calls.

What was measured:
[1] = T. cruzi growth inhibition in host cells, dose response, cell-based, plate reader, dry powder, set 2 (AID 652275); assay type: functional
[2] = target: Cytochrome P450 2C19 (Homo sapiens, UniProt P33261); experiment: Cytochrome panel assay with activity outcomes. Panel member name: p450-cyp2c19 Compounds with AC50 equal or less than 10 uM are considered active; assay type: functional; settings: read-out: AC50
[3] = target: Cytochrome P450 2C9 (Homo sapiens, UniProt P11712)
[4] = target: T1, fMet-Leu-Phe receptor (Homo sapiens, UniProt P21462); experiment: FPR ligands, dose response (AID 519); assay type: functional
T1 sequence (P21462 whole entry): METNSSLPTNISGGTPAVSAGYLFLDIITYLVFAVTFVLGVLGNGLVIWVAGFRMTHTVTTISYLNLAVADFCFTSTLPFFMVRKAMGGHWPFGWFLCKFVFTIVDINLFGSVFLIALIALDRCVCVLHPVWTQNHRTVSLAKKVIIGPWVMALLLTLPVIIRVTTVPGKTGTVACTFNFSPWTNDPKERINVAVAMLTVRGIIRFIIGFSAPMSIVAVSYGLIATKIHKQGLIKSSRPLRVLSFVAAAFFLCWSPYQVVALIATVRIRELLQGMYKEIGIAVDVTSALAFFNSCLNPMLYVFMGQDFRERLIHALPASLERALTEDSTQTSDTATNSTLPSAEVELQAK

[5] = P. falciparum Dd2 growth inhibitors, dose response, SYBR Green, cherry-picked samples (AID 1159567); assay type: functional, cell-based
[6] = inhibitors of intracellular T. cruzi replication, confirmation, NIH3T3 host cells, beta-gal luminescence (AID 2044); assay type: functional, cell-based;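 also: intracellular parasites grown in NIH/3T3 mouse fibroblasts as host cells; luminescent beta-galactosidase reporter signal from transgenic T. cruzi replicating inside host cells; inhibitors lower the luminescence signal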
[7] = NIH-3T3 fibroblast cytotoxicity, dose response, cytotoxicity control, cell-based, fluorescence, Alamar Blue, secondary assay (AID 2327); assay type: functional;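 also: NIH-3T3 mouse fibroblasts cultured with fluconazole at 8 µg/mL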
[8] = cytotoxicity toward NIH3T3 fibroblasts, dose response, counter-screen, cell-based, ATP luminescence, mouse fibroblasts (AID 2010); assay type: functional;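 also: cells exposed to compound for about 90 hours before reading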
[9] = tested on: INS1; experiment: beta cell apoptosis inhibitors, cytokine rescue, dose response, luminescence, retest (AID 449756); assay type: functional, cell-based; settings: Rattus norvegicus;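 also: cell death triggered by IL-1 beta plus TNF-alpha plus IFN-gamma mixture; protective hits raise ATP signal compared with cytokine alone wells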
[10] = C. albicans growth with fluconazole, confirmation, fluorescence, retest (AID 2467); assay type: functional, cell-based
[11] = target: Induced myeloid leukemia cell differentiation protein Mcl-1 (Homo sapiens, UniProt Q07820); assay type: functional
[12] = target: Albumin (Bos taurus, UniProt P02769); experiment: Counterscreen for inhibitors of T-cell receptor (TCR)-CD3 interaction: Fluorescence-based biochemical high throughput dose response assay to identify inhibitors of T-cell receptor (TCR)-CD3 interaction using a TAMRA-labeled BSA probe.; assay type: functional
[13] = target: T2, Caspase-6 (Homo sapiens, UniProt P55212); experiment: human caspase-6 inhibitors, dose response, biochemical, VEID-R110 fluorescence, cherry-pick (AID 720632)
T2 sequence (P55212 whole entry): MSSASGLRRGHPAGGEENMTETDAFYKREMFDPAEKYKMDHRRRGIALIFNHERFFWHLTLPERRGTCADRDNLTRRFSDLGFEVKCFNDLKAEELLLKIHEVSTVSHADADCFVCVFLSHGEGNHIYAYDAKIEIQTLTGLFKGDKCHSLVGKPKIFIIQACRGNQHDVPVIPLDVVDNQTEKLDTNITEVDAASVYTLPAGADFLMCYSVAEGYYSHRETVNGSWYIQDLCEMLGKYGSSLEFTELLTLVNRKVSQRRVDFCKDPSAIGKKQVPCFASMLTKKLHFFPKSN

[14] = cells; assay type: functional, cell-based
[15] = cells; assay type: functional, cell-based; remark: listed apart in the source
[16] = target: T3, Aminopeptidase N (Plasmodium falciparum FcB1/Columbia, UniProt O96935); experiment: P. falciparum M1AAP inhibitors, biochemical, fluorogenic H-Leu-NHMec substrate, 1536-well (AID 1445); design: species or system Plasmodium falciparum 3D7, 3D7
T3 sequence (O96935 whole entry): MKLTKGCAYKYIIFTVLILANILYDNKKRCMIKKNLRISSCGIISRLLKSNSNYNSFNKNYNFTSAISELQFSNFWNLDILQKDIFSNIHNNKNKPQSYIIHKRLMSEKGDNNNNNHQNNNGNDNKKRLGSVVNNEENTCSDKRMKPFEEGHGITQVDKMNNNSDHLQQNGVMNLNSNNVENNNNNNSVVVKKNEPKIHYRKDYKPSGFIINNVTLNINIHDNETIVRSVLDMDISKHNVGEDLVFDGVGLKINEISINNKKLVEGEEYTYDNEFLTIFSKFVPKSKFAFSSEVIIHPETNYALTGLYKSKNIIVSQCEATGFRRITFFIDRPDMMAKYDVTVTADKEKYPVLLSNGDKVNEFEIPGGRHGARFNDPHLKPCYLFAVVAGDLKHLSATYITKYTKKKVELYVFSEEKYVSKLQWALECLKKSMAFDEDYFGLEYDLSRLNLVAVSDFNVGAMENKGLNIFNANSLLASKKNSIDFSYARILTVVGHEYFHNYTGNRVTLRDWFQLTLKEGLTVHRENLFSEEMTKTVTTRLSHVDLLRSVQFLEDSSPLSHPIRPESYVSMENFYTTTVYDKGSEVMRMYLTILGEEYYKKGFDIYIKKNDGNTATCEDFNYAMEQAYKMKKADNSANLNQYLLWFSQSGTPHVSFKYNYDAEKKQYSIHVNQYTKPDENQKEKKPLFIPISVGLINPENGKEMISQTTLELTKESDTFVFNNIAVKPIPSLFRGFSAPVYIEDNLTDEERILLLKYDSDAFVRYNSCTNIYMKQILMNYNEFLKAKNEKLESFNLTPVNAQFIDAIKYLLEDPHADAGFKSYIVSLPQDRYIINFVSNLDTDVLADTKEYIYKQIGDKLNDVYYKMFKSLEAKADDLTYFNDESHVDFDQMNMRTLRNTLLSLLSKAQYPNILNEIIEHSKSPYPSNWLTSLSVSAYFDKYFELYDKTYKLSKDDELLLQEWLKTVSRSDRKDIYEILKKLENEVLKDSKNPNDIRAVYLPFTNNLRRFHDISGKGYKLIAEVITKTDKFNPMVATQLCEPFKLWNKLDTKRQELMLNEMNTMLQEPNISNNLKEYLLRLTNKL

[17] = THP-1 cell cytotoxicity, dose response, cytotoxicity control for Vif-APOBEC3G degradation inhibitor project, THP-1 cells (AID 1117359); assay type: functional; settings: Human immunodeficiency virus 1, THP-1
[18] = target: Heat shock protein HSP 90-alpha (Homo sapiens, UniProt P07900); assay type: functional, organism-based

Chain of Albumin (P02769 whole entry): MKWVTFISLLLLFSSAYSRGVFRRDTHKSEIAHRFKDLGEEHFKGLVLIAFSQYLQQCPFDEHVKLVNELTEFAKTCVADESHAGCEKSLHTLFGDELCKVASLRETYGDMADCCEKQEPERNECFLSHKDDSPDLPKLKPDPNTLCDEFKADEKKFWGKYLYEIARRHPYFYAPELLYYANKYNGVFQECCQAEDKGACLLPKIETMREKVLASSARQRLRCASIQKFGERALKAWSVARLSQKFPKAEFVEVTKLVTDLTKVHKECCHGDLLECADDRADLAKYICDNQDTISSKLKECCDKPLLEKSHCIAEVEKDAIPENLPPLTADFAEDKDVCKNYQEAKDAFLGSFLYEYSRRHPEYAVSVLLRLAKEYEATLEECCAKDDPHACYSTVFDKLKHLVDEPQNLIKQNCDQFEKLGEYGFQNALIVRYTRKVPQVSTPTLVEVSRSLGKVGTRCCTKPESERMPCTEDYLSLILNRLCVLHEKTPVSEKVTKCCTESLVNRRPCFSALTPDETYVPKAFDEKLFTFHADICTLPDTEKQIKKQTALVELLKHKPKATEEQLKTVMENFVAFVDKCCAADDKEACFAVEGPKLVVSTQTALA
Chain of Cytochrome P450 2C9 (P11712 whole entry): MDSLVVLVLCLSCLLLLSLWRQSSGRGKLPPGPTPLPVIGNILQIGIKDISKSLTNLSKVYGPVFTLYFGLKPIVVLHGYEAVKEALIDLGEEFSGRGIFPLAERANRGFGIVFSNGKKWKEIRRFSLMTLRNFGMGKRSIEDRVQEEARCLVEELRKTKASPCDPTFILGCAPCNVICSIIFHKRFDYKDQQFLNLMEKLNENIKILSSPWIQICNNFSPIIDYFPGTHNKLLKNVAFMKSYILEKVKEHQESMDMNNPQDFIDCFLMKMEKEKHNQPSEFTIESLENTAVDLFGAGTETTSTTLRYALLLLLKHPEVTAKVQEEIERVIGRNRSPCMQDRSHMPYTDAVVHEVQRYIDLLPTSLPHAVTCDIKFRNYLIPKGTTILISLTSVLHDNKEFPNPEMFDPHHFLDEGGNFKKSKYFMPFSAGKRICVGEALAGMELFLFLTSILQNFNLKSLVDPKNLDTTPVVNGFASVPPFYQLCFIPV
Chain of Induced myeloid leukemia cell differentiation protein Mcl-1 (Q07820 whole entry): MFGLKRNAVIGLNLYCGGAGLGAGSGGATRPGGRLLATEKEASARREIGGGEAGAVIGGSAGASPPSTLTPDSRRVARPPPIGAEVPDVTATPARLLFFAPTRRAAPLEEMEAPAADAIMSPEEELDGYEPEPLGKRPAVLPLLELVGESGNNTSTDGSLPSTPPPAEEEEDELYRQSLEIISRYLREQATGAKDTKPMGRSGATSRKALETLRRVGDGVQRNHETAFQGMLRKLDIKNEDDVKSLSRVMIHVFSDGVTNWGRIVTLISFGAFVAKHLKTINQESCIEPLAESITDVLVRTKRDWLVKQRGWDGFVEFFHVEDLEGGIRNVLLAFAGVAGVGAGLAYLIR
Chain of Cytochrome P450 2C19 (P33261 whole entry): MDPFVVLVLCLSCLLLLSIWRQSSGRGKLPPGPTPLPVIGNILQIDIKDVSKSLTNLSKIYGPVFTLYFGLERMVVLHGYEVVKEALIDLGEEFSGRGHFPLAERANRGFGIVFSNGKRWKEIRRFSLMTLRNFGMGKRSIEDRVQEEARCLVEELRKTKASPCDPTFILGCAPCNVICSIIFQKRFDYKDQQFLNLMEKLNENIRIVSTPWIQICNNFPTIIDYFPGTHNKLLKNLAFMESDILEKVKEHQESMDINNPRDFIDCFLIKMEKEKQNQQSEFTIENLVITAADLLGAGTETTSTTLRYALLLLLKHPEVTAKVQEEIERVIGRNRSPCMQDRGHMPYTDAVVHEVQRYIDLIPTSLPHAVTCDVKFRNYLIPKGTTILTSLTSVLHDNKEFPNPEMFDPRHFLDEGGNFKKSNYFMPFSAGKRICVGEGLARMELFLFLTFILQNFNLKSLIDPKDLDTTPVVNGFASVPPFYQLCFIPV

SMILES: OC[C@H]1[C@H](c2ccc(Br)cc2)[C@@H]2CN(Cc3ccccn3)CCCCN12
- AC50 [1]: 3.71 µM (active)

- AC50 [2]: 22.4 µM (inconclusive)
- AC50 [3]: 39.8 µM (inconclusive)
- Ki [4]: 36.8 µM (inactive)
SMILES: CCOC(=O)Cc1cc(O)n2nc(C)c(-c3ccccc3)c2n1

SMILES: CC(C)(C)[S+]([O-])N1Cc2cc(C(=O)NCc3ccc4c(c3)OCO4)nc(-c3cccc(C#CCC4CCCC4)c3)c2[C@@H]1CCO (stereo not given in full)
- AC50 [1]: 0.883 µM (active)
- AC50 [5]: 3.54 µM (active)

SMILES: Cc1cc(/C=N/n2c(COc3ccccc3C)nc3ccccc3c2=O)c(O)c([N+](=O)[O-])c1
- EC50 [6]: 1 µM (active)
- EC50 [7]: > 150 µM (inactive)
- EC50 [8]: 6.51 µM (active)
- AC50 [9]: 2.99 µM (active)
- EC50 [10]: 1.37 µM (active)
- IC50 [11]: 4.58 µM (active)
- IC50 [12]: > 94.1 µM (inactive)

- AC50 [13]: 12.2 µM (active)
SMILES: CCOC(=O)N1CCN(C(C(=O)NC2CCCC2)C(C)C)CC1 (stereo not given)

SMILES: O=C(N/N=C/c1cc(Br)ccc1O)c1cccc(N2CCCC2=O)c1
- EC50 [7]: 15.4 µM (inconclusive)
- EC50 [14]: > 350 µM (not active)
- EC50 [15]: 7.74 µM (active)
- EC50 [10]: 2.33 µM (active)
- IC50 [16]: 38.3 µM (active)
- IC50 [12]: > 94.1 µM (inactive)

SMILES: O=[N+]([O-])c1cc(CN2CCN(c3cccc(C(F)(F)F)c3)CC2)c2cccnc2c1O
- EC50 [6]: 0.493 µM (active)
- CC50 [17]: 2.18 µM (active)
- EC50 [8]: 4.99 µM (active)
- AC50 [13]: 33.8 µM (active)
- AC50 [18]: 3.53 µM (active)
